Data as given in ChEMBL document CHEMBL1138350, “Allosteric modulation of the dopamine receptor by conformationally constrained type VI beta-turn peptidomimetics of Pro-Leu-Gly-NH2” (J Med Chem, 2007).
Calls of active or inactive are those of the source. The calls are words filed in the database; no cut-off is given here. Peptide text beside a SMILES is read from it.

Tests used:
Assay type in all cases: cell membranes
Conditions in all cases: Striatum
Bos taurus [1] = species: Bos taurus; experiment: Enhancement of [3H]NPA binding to dopamine receptor in bovine striatal membrane at 10 nM
Bos taurus [2] = species: Bos taurus; experiment: Enhancement of [3H]NPA binding to dopamine receptor in bovine striatal membrane at 1 uM
Bos taurus [3] = species: Bos taurus; experiment: Enhancement of [3H]NPA binding to dopamine receptor in bovine striatal membrane at 100 nM

Row | Compound | Activity (Bos taurus [1]) | Activity (Bos taurus [2]) | Activity (Bos taurus [3])
1 | NC(=O)[C@]12CCCN1C(=O)[C@@]1(CCCN1C(=O)[C@@H]1CCCN1)CC2 | 11.4% | – | –
2 | CC(C)C[C@@]1(NC(=O)[C@@H]2CCCN2)CC[C@@]2(C(N)=O)CCCN2C1=O | Active | Active | 19.5%
3 | NC(=O)[C@@H]1CCCN1C(=O)[C@@H]1CCCN1C(=O)[C@@H]1CCCN1 (H-Pro-Pro-Pro-NH2) | – | – | 34%
4 | NC(=O)[C@H]1CS[C@@H]2CC[C@]3(CCCN3C(=O)[C@@H]3CCCN3)C(=O)N12 | – | – | 38.2%
